Read-outs that look alike come from different tables or passages of the source.
Columns and labels:
Assay type in all cases: in vivo
[1] = system: redroot pigweed (Amaranthus retroflexus, AMARE); assay: Pre-emerge test, greenhouse herbicide activity screening; settings: for Pre-emerge Herbicidal Activity AMARE (phytotoxicity rating, scale 0-100): rated 14 days after application, 0 = no damage, 100 = complete death; for pest or weed control at 63 g/ha / pest or weed control at 250 g/ha: Amaranthus retroflexus, pre-emergence, 336 h, read-out: Pre-emerge Herbicidal Activity AMARE; for Pre-emerge herbicidal activity, phytotoxicity rating AMARE: rating scale 0-100, 14 days after application
Procedure, shortened: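 Herbicidal damage is scored 0 (none) to 100 (complete plant death) two weeks after a simulated field spray. Rates span 15–1000 g ai/ha, delivered in acetone at 187 l/ha. For post-emergence treatments, plants have 2–3 leaves and the spray carries 0.25% v/v non-ionic surfactant.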

[2] = system: common ragweed (Ambrosia artemisizfolia L., AMBEL); assay: as above; settings: for Pre-emerge Herbicidal Activity AMBEL (phytotoxicity rating, scale 0-100): rated 14 days after application, 0 = no damage, 100 = complete death; for Pre-emerge Herbicidal Activity AMBEL: phytotoxicity rating 0-100, 14 days after application
Procedure, shortened: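 Sandy loam pots; pre-emerge: sown 1 d pre-spray, surface-watered after, then bottom-watered. Post-emerge: sown 8–21 d before, 2–3 leaf stage, + 0.25% v/v NIS, bottom-watered. Acetone, 187 l/ha track spray, 15–1000 g ai/ha. 0–100 injury score, day 14.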

[3] = system: redroot pigweed (Amaranthus retroflexus, AMARE); assay: Post-emerge test, greenhouse herbicide activity screening; settings: for pest or weed control at 63 g/ha / pest or weed control at 250 g/ha: Amaranthus retroflexus, post-emergence, 336 h, read-out: Post-emerge Herbicidal Activity AMARE
Procedure, shortened: (§1)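 Each test used a mechanized track sprayer delivering 187 l/ha of acetone solution at 15–1000 g ai/ha. Post-emerge foliage at 2–3 leaves was treated with added 0.25% v/v non-ionic surfactant and bottom-watered only. Injury was assessed on day 14, where 100 means total kill.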

[4] = system: common ragweed (Ambrosia artemisizfolia L., AMBEL); assay: as above
Procedure, shortened: as §1

[5] = system: large crabgrass (Digitaria sanguinalis, DIGSA); assay: as above; settings: for pest or weed control at 63 g/ha / pest or weed control at 250 g/ha: Digitaria sanguinalis, post-emergence, 336 h, read-out: Post-emerge Herbicidal Activity DIGSA; for phytotoxicity rating DIGSA: rating scale 0-100
Procedure, shortened: as §1

[6] = 63 g ai/ha, phytotoxicity rating 0-100 (0 no damage, 100 complete death), 14 days after application
[7] = 250 g ai/ha, phytotoxicity rating 0-100 (0 no damage, 100 complete death), 14 days after application
[8] = pre-emerge, rate 63 g ai/ha, phytotoxicity rating 0-100 at 14 days after application
[9] = pre-emerge, rate 250 g ai/ha, phytotoxicity rating 0-100 at 14 days after application
[10] = post-emerge, 63 g ai/ha, phytotoxicity rating 0-100 at 14 days after application
[11] = post-emerge, 250 g ai/ha, phytotoxicity rating 0-100 at 14 days after application

SMILES	pest or weed control at 63 g/ha [1, 8] [%]	pest or weed control at 250 g/ha [1, 9] [%]	pest or weed control at 63 g/ha [3, 10] [%]	pest or weed control at 250 g/ha [3, 11] [%]	pest or weed control at 63 g/ha [5, 10] [%]	pest or weed control at 250 g/ha [5, 11] [%]	further results
COc1c(Cl)cc(F)c(-n2c(=O)cc(C(F)(F)F)n(C)c2=O)c1[N+](=O)[O-] [Compound 1-5, 3-(4-chloro-6-fluoro-3-methoxy-2-nitrophenyl)-1-methyl-6-trifluoromethyl-2,4(1H, 3H)-pyrimidinedione]	–	–	–	–	–	–	Pre-emerge Herbicidal Activity AMARE (phytotoxicity rating, scale 0-100) ([1]; 63 g ai/ha, pre-emerge): 20; Pre-emerge Herbicidal Activity AMARE (phytotoxicity rating, scale 0-100) ([1]; 250 g ai/ha, pre-emerge): 95; Pre-emerge Herbicidal Activity AMBEL (phytotoxicity rating, scale 0-100) ([2]; 63 g ai/ha): 0; Pre-emerge Herbicidal Activity AMBEL (phytotoxicity rating, scale 0-100) ([2]; 250 g ai/ha): 20; pest or weed control at 63 g/ha [3, 6]: 0%; pest or weed control at 250 g/ha [3, 7]: 40%; Post-emerge Herbicidal Activity AMBEL [4, 6]: 0; Post-emerge Herbicidal Activity AMBEL [4, 7]: 30; pest or weed control at 63 g/ha [5, 6]: 0%; pest or weed control at 250 g/ha [5, 7]: 0%
Cn1c(C(F)(F)F)cc(=O)n(-c2c(F)cc(Cl)c(O)c2N)c1=O [Compound 1-16, 3-(2-amino-4-chloro-6-fluoro-3-hydroxyphenyl)-1-methyl-6-trifluoromethyl-2,4(1H, 3H)-pyrimidinedione]	–	–	–	–	–	–	Pre-emerge Herbicidal Activity AMARE (phytotoxicity rating, scale 0-100) ([1]; 63 g ai/ha, pre-emerge): 0; Pre-emerge Herbicidal Activity AMARE (phytotoxicity rating, scale 0-100) ([1]; 250 g ai/ha, pre-emerge): 0; Pre-emerge Herbicidal Activity AMBEL (phytotoxicity rating, scale 0-100) ([2]; 63 g ai/ha): 0; Pre-emerge Herbicidal Activity AMBEL (phytotoxicity rating, scale 0-100) ([2]; 250 g ai/ha): 0; pest or weed control at 63 g/ha [3, 6]: 30%; pest or weed control at 250 g/ha [3, 7]: 70%; Post-emerge Herbicidal Activity AMBEL [4, 6]: 0; Post-emerge Herbicidal Activity AMBEL [4, 7]: 0; pest or weed control at 63 g/ha [5, 6]: 0%; pest or weed control at 250 g/ha [5, 7]: 0%
Cn1c(C(F)(F)F)cc(=O)n(-c2c(F)cc(Cl)c(OC(F)F)c2N)c1=O [Compound 1-38, 3-(2-amino-4-chloro-3-difluoromethoxy-6-fluorophenyl)-1-methyl-6-trifluoromethyl-2,4(1H, 3H)-pyrimidinedione]	–	–	–	–	–	–	Pre-emerge Herbicidal Activity AMARE (phytotoxicity rating, scale 0-100) ([1]; 63 g ai/ha, pre-emerge): 100; Pre-emerge Herbicidal Activity AMARE (phytotoxicity rating, scale 0-100) ([1]; 250 g ai/ha, pre-emerge): 100; pest or weed control at 63 g/ha [3, 6]: 80%; pest or weed control at 250 g/ha [3, 7]: 100%; pest or weed control at 63 g/ha [5, 6]: 10%; pest or weed control at 250 g/ha [5, 7]: 80%
COc1c(Cl)cc(F)c(-n2c(=O)cc(C(F)(F)F)n(C)c2=O)c1NC(N)=O [Compound 3-26, 3-(2-aminocarbonylamino-4-chloro-6-fluoro-3-methoxyphenyl)-1-methyl-6-trifluoromethyl-2,4(1H, 3H)-pyrimidinedione]	–	–	–	–	–	–	pest or weed control at 63 g/ha ([1]; 63 g ai/ha, phytotoxicity rating 0-100, 14 days after application): 80%; pest or weed control at 250 g/ha ([1]; 250 g ai/ha, phytotoxicity rating 0-100, 14 days after application): 100%; Pre-emerge Herbicidal Activity AMBEL ([2]; 63 g ai/ha): 10; Pre-emerge Herbicidal Activity AMBEL ([2]; 250 g ai/ha): 90; phytotoxicity rating AMARE ([3]; post-emerge, 63 g ai/ha, 14 days after application, rating scale 0-100 (0 no damage, 100 complete death)): 50; phytotoxicity rating AMARE ([3]; post-emerge, 250 g ai/ha, 14 days after application, rating scale 0-100): 65; phytotoxicity rating DIGSA ([5]; post-emerge, 63 g ai/ha, 14 days after application): 0; phytotoxicity rating DIGSA ([5]; post-emerge, 250 g ai/ha, 14 days after application): 0
CC(C)Oc1c(Cl)cc(F)c(-n2nnn(CCCF)c2=O)c1N [Compound 5-18, 1-(2-amino-4-chloro-6-fluoro-3-isopropyloxyphenyl)-4-(3fluoropropyl)-1,4-dihydro-5-oxo-5H-tetrazole]	30	0	0	10	0	0	–
COc1c(Cl)cc(F)c(-n2nc(C)n(C(F)F)c2=O)c1NC(=O)c1ccc2ccccc2c1 [Compound 6-15]	100	100	100	100	30	60	–
Cc1nn(-c2c(Cl)cc(Cl)cc2NC(=O)c2ccc3ccccc3c2)c(=O)n1C(F)F [Compound 6-16]	30	50	100	90	20	30	–
COc1c(Cl)cc(Cl)c(-n2nc(C)n(C(F)F)c2=O)c1NC(=O)c1ccc2ccccc2c1 [Compound 6-17]	90	100	60	70	0	20	–
Cc1nn(-c2c(Cl)cc(Cl)c(N)c2N)c(=O)n1C(F)F [Compound 6-20]	10	0	0	60	0	0	–
Cc1nn(-c2c(N)cc(Cl)cc2F)c(=O)n1C(F)F [Compound 6-22]	30	100	70	100	0	0	–
Cc1nn(-c2c(F)cc(Cl)cc2NC(=O)c2ccc3ccccc3c2)c(=O)n1C(F)F [Compound 6-24]	20	100	0	80	0	0	–
COc1c(Cl)cc(F)c(-c2nn(C)c(C(F)(F)F)c2Cl)c1NC(=O)c1ccc2ccccc2c1 [Compound 7-14]	40	80	–	70	–	10	–
COc1c(Cl)cc(F)c(-c2nn(C)c(C(F)(F)F)c2Cl)c1NC(=O)C=Cc1ccccc1 [Compound 7-15]	80	100	100	100	0	0	–
Nc1c(O)c(Cl)cc(F)c1N1C(=O)C2=C(CCCC2)C1=O [Compound 8-2, 2-amino-6-chloro-4-fluoro-3-tetrahydrophthalimido)phenol]	90	100	95	100	30	30	Post-emerge Herbicidal Activity AMBEL [4, 10]: 30; Post-emerge Herbicidal Activity AMBEL [4, 11]: 90
CC(C)Oc1c(Cl)cc(F)c(N2C(=O)C3=C(CCCC3)C2=O)c1N [Compound 8-4, N-(2-amino-4-chloro-6-fluoro-3-isopropyloxyphenyl)tetrahydrophthalimide]	60	100	70	90	0	0	–
COc1c(Cl)cc(F)c(N2C(=O)c3ccccc3C2=O)c1NC(=O)c1ccc2ccccc2c1 [Compound 13-3, N-[4-chloro-6-fluoro-3-methoxy-2-(2-naphthoyl)aminophenyl]phthalimide]	–	–	90	90	0	10	Pre-emerge herbicidal activity, phytotoxicity rating AMARE ([1]; 63 g ai/ha): 100; Pre-emerge herbicidal activity, phytotoxicity rating AMARE ([1]; 250 g ai/ha): 100

Source: patent US6355799B1, “Substituted benzene compounds, process for their preparation, and herbicidal and defoliant compositions containing them” (ISK Americas Incorporated, priority 1997, dated 2002)
